The numbers were not newly measured in US20030008923A1, “Antineoplastic combinations” (Wyeth, priority 2001, published 2003), which cites them from elsewhere.

The structures appear in SMILES notation.

Series [1] deals with mTOR (Homo sapiens, UniProt P42345+P62942). To be noted: growth factor stimulated cells, Western blot. In general terms: In western blotting, separated proteins are transferred to a membrane and probed.
The subject of series [2] is histologically diverse tumor cells.
The subject of series [3] is human tumor xenografts.
For series [4], the system named is human glioblastoma cell line. As to conditions: human glioblastoma cell line in vitro.

Regarding `CO[C@H]1C[C@@H]2CC[C@@H](C)[C@@](O)(O2)C(=O)C(=O)N2CCCC[C@H]2C(=O)O[C@H]([C@H](C)C[C@@H]2CC[C@@H](O)[C@H](OC)C2)CC(=O)[C@H](C)/C=C(\C)[C@@H](O)[C@@H](OC)C(=O)[C@H](C)C[C@H](C)/C=C/C=C/C=C/1C` [rapamycin], the “phosphorylation of serine 389 of p70s6 kinase” value in series [1] is reported as “completely blocks”.

On to `CO[C@H]1C[C@@H]2CC[C@@H](C)[C@@](O)(O2)C(=O)C(=O)N2CCCC[C@H]2C(=O)O[C@H]([C@H](C)C[C@@H]2CC[C@@H](OC(=O)C(C)(CO)CO)[C@H](OC)C2)CC(=O)[C@H](C)/C=C(\C)[C@@H](O)[C@@H](OC)C(=O)[C@H](C)C[C@H](C)/C=C/C=C/C=C/1C` [CCI-779, Rapamycin 42-ester with 3-hydroxy-2-(hydroxymethyl)-2-methylpropionic acid], for which the “growth of tumor cells in vitro” value in series [2] (histologically diverse tumor cells) was “inhibit the growth”. Besides, the cell cycle effect entry in series [2] (in vitro) was “arrested cells in the G1 phase”. Moreover, in series [3] (nude mice), the “activity against human tumor xenografts of diverse histological types” value is “has activity” and the “growth of several human pancreatic tumors” value is given as “inhibited”. Further, the “activity in orthotopic glioma model” value in series [3] (orthotopic glioma model in nude mice) is “active”. For the same compound, the “growth factor (platelet-derived)-induced stimulation” value in series [4] is reported as “markedly suppressed”.
